# Source: the supplement of paper PMC10307832
# Columns and labels:
# Experiment in all cases: relative viability (nuclei count vs DMSO), 5 days (fraction); higher = more cells survive
# [1] = system: 201T
# Procedure, shortened: (§1)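 Each reported value is a median over duplicate plates. It expresses relative viability: treated-well nuclei count divided by vehicle-well nuclei count. Lung cancer cell lines in 1536-well plates were dosed by pin tool a day after seeding, alone with one drug or with a fixed anchor-drug dose plus five library-drug doses (not always all listed) in √10 steps, and nuclei were counted after 5 days.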
# [2] = system: BEN
# Procedure, shortened: as §1
# [3] = system: EMC-BAC-2
# Procedure, shortened: as §1
# [4] = system: HARA
# Procedure, shortened: as §1
# [5] = system: HCC-44
# Procedure, shortened: as §1
# [6] = system: LCLC-103H
# Procedure, shortened: as §1
# [7] = system: LOU-NH91
# Procedure, shortened: as §1
# [8] = system: NCI-H1395
# Procedure, shortened: as §1
# [9] = system: NCI-H1993
# Procedure, shortened: as §1
# [10] = system: NCI-H2023
# Procedure, shortened: as §1
# [11] = system: NCI-H2087
# Procedure, shortened: as §1
# [12] = system: NCI-H2126
# Procedure, shortened: as §1
# [13] = system: NCI-H2347
# Procedure, shortened: as §1
# [14] = system: NCI-H23
# Procedure, shortened: as §1
# [15] = system: NCI-H3122
# Procedure, shortened: as §1
# [16] = system: NCI-H441
# Procedure, shortened: as §1
# [17] = system: NCI-H522
# Procedure, shortened: as §1
# [18] = system: NCI-H596
# Procedure, shortened: as §1
# [19] = system: NCI-H647
# Procedure, shortened: as §1
# [20] = system: NCI-H650
# Procedure, shortened: as §1
# [21] = system: NCI-H727
# Procedure, shortened: as §1
# [22] = system: NCI-H838
# Procedure, shortened: as §1
smiles,measurement,setting,value
O=c1cc(-c2cccc3c2Sc2ccccc2S3)oc(N2CCOCC2)c1 + COc1cccc2cc(-c3nc([C@H]4CC[C@H](C(=O)O)CC4)n4ncnc(N)c34)[nH]c12 [OSI-027] (partner 0.5 µM),relative viability,[1]; first compound 0.08 µM,0.876
same,relative viability,[1]; first compound 0.8 µM,0.591
same,relative viability,[1]; first compound 2.53 µM,0.695
same,relative viability,[1]; first compound 8 µM,0.734
same,relative viability,[2]; first compound 0.08 µM,0.279
same,relative viability,[2]; first compound 0.253 µM,0.268
same,relative viability,[2]; first compound 0.8 µM,0.281
same,relative viability,[2]; first compound 2.53 µM,0.298
same,relative viability,[2]; first compound 8 µM,0.321
same,relative viability,[3]; first compound 0.08 µM,0.341
same,relative viability,[3]; first compound 0.253 µM,0.416
same,relative viability,[3]; first compound 0.8 µM,0.354
same,relative viability,[3]; first compound 2.53 µM,0.392
same,relative viability,[3]; first compound 8 µM,0.406
same,relative viability,[4]; first compound 0.08 µM,0.458
same,relative viability,[4]; first compound 0.253 µM,0.624
same,relative viability,[4]; first compound 0.8 µM,0.566
same,relative viability,[4]; first compound 2.53 µM,0.424
same,relative viability,[4]; first compound 8 µM,0.481
same,relative viability,[5]; first compound 0.08 µM,0.419
same,relative viability,[5]; first compound 0.253 µM,0.561
same,relative viability,[5]; first compound 2.53 µM,0.343
same,relative viability,[5]; first compound 8 µM,0.499
same,relative viability,[6]; first compound 0.08 µM,0.434
same,relative viability,[6]; first compound 0.253 µM,0.489
same,relative viability,[6]; first compound 0.8 µM,0.504
same,relative viability,[6]; first compound 2.53 µM,0.481
same,relative viability,[6]; first compound 8 µM,0.454
same,relative viability,[7]; first compound 0.08 µM,0.687
same,relative viability,[7]; first compound 0.253 µM,0.736
same,relative viability,[7]; first compound 0.8 µM,0.594
same,relative viability,[7]; first compound 2.53 µM,0.628
same,relative viability,[7]; first compound 8 µM,0.758
same,relative viability,[8]; first compound 0.08 µM,0.594
same,relative viability,[8]; first compound 0.253 µM,0.581
same,relative viability,[8]; first compound 0.8 µM,0.601
same,relative viability,[8]; first compound 2.53 µM,0.577
same,relative viability,[8]; first compound 8 µM,0.683
same,relative viability,[9]; first compound 0.08 µM,0.539
same,relative viability,[9]; first compound 0.253 µM,0.543
same,relative viability,[9]; first compound 0.8 µM,0.548
same,relative viability,[9]; first compound 2.53 µM,0.562
same,relative viability,[9]; first compound 8 µM,0.637
same,relative viability,[10]; first compound 0.08 µM,0.353
same,relative viability,[10]; first compound 0.253 µM,0.379
same,relative viability,[10]; first compound 0.8 µM,0.396
same,relative viability,[10]; first compound 2.53 µM,0.315
same,relative viability,[10]; first compound 8 µM,0.256
same,relative viability,[11]; first compound 0.08 µM,0.352
same,relative viability,[11]; first compound 0.253 µM,0.649
same,relative viability,[11]; first compound 0.8 µM,0.589
same,relative viability,[11]; first compound 2.53 µM,0.416
same,relative viability,[11]; first compound 8 µM,0.452
same,relative viability,[12]; first compound 0.08 µM,0.672
same,relative viability,[12]; first compound 0.253 µM,0.813
same,relative viability,[12]; first compound 0.8 µM,0.581
same,relative viability,[12]; first compound 2.53 µM,0.535
same,relative viability,[12]; first compound 8 µM,0.828
same,relative viability,[13]; first compound 0.08 µM,0.421
same,relative viability,[13]; first compound 0.253 µM,0.454
same,relative viability,[13]; first compound 0.8 µM,0.297
same,relative viability,[13]; first compound 2.53 µM,0.431
same,relative viability,[13]; first compound 8 µM,0.297
same,relative viability,[14]; first compound 0.08 µM,0.511
same,relative viability,[14]; first compound 0.253 µM,0.739
same,relative viability,[14]; first compound 0.8 µM,0.519
same,relative viability,[14]; first compound 2.53 µM,0.54
same,relative viability,[14]; first compound 8 µM,0.697
same,relative viability,[15]; first compound 0.08 µM,1.25
same,relative viability,[15]; first compound 0.253 µM,1.08
same,relative viability,[15]; first compound 0.8 µM,0.957
same,relative viability,[15]; first compound 2.53 µM,1.03
same,relative viability,[15]; first compound 8 µM,1.08
same,relative viability,[16]; first compound 0.08 µM,0.5
same,relative viability,[16]; first compound 0.253 µM,0.813
same,relative viability,[16]; first compound 0.8 µM,0.671
same,relative viability,[16]; first compound 2.53 µM,0.645
same,relative viability,[16]; first compound 8 µM,0.761
same,relative viability,[17]; first compound 0.08 µM,0.765
same,relative viability,[17]; first compound 0.253 µM,0.685
same,relative viability,[17]; first compound 0.8 µM,0.722
same,relative viability,[17]; first compound 2.53 µM,0.723
same,relative viability,[17]; first compound 8 µM,0.803
same,relative viability,[18]; first compound 0.08 µM,0.69
same,relative viability,[18]; first compound 0.253 µM,0.803
same,relative viability,[18]; first compound 0.8 µM,0.695
same,relative viability,[18]; first compound 2.53 µM,0.683
same,relative viability,[18]; first compound 8 µM,0.662
same,relative viability,[19]; first compound 0.08 µM,0.636
same,relative viability,[19]; first compound 0.253 µM,0.813
same,relative viability,[19]; first compound 0.8 µM,0.588
same,relative viability,[19]; first compound 2.53 µM,0.513
same,relative viability,[19]; first compound 8 µM,0.623
same,relative viability,[20]; first compound 0.08 µM,0.469
same,relative viability,[20]; first compound 0.253 µM,0.548
same,relative viability,[20]; first compound 0.8 µM,0.508
same,relative viability,[20]; first compound 8 µM,0.562
same,relative viability,[21]; first compound 0.08 µM,0.631
same,relative viability,[21]; first compound 0.253 µM,0.673
same,relative viability,[21]; first compound 0.8 µM,0.586
same,relative viability,[21]; first compound 2.53 µM,0.563
same,relative viability,[21]; first compound 8 µM,0.64
same,relative viability,[22]; first compound 0.08 µM,0.344
same,relative viability,[22]; first compound 0.253 µM,0.417
same,relative viability,[22]; first compound 0.8 µM,0.312
same,relative viability,[22]; first compound 2.53 µM,0.339
same,relative viability,[22]; first compound 8 µM,0.41
